A value given as a limit tells only on which side of the number the result lay.

One series deals with T1, hERG channel (Homo sapiens, UniProt Q12809).
T1 construct: expressed in transfected cells; host or cells: CHO (Chinese hamster ovary), CHOhERG
Put plainly: hERG channel inhibition assay (patch-clamp, CHOhERG cells). The class given is cell-based. As to conditions: for IC50 / IC20: CHOhERG cells, whole-cell patch-clamp; for IC20: human, CHO cells stably expressing hERG (CHOhERG); for hERG IC20/TLR7 IC50 / hERG IC20/TLR8 IC50 / hERG IC20/TLR9 IC50: safety ratio. How it is done:
hERG Channel Inhibition Assay:
The hERG K^+ channels were cloned in humans and stably expressed in a CHO (Chinese hamster ovary) cell line. CHOhERG cells were used for patch-clamp (voltage-clamp, whole-cell) experiments. Cells were stimulated by a voltage pattern to activate hERG channels and conduct IKhERG currents (rapid delayed outward rectifier potassium current of the hERG channel). After the cells were stabilized for a few minutes, the amplitude and kinetics of IKhERG were recorded at a stimulation frequency of 0.1 Hz (6 bpm). Thereafter, the test compound was added to the preparation at increasing concentrations. For each concentration, an attempt was made to reach a steady-state effect, usually, this was achieved within 3-10 min at which time the next highest concentration was applied. The amplitude and kinetics of IKhERG are recorded in each concentration of the drug which were compared to the control values (taken as 100%). (references: Redfern W S, Carlsson L, Davis A S, Lynch W G, MacKenzie I, Palethorpe S, Siegl P K, Strang I, Sullivan A T, Wallis R, Camm A J, Hammond T G. 2003; Relationships between preclinical cardiac electrophysiology, clinical QT interval prolongation and torsade de pointes for a broad range of drugs: evidence for a provisional safety margin in drug development. Cardiovasc. Res. 58:32-45, Sanguinetti M C, Tristani-Firouzi M. 2006; hERG potassium channels and cardiac arrhythmia. Nature 440:463-469, Webster R, Leishman D, Walker D. 2002; Towards a drug concentration effect relationship for QT prolongation and torsades de pointes. Curr. Opin. Drug Discov. Devel. 5:116-26).
The calculation of hERG IC20/TLR7/8/9 IC50 below serves as early selectivity index to assess hERG liability.

Another series concerns the target T2, human TLR9 (Homo sapiens, UniProt Q9NR96).
T2 construct: host or cells: HEK293 (HEK-Blue hTLR9)
T2 sequence (Q9NR96 26-1032): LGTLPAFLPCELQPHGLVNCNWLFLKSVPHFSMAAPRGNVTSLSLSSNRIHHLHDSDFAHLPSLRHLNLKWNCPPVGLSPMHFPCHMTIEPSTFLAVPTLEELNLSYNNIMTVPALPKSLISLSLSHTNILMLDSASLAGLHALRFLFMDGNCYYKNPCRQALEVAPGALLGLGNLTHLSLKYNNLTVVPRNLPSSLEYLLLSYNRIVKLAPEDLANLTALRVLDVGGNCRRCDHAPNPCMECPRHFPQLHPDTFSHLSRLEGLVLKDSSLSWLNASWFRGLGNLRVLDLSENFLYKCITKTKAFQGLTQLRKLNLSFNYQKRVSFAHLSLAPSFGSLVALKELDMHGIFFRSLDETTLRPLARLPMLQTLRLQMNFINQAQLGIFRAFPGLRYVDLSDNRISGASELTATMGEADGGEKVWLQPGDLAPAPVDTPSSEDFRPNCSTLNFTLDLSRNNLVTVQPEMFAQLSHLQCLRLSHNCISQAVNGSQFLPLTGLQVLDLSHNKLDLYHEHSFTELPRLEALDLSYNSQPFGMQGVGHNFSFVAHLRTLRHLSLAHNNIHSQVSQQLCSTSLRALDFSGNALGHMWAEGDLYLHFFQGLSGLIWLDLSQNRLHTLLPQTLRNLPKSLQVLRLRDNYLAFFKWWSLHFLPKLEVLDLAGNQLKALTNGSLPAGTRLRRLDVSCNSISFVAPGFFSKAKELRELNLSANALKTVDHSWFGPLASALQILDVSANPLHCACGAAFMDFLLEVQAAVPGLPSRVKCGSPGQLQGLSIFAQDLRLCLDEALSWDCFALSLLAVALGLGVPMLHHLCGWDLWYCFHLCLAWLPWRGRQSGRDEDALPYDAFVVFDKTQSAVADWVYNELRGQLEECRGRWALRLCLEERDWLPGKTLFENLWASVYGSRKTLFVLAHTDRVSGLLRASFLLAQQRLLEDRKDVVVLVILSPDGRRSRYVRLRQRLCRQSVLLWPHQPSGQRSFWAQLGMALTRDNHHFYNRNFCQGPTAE
Put plainly: HEK293-Blue-hTLR-9 cells assay. The class given is cell-based. As to conditions: HEK293-Blue-hTLR9 cells, ODN2006 stimulation, 20 hrs, SEAP reporter; read-out: HEK/hTLR9 IC50.

T1 sequence (Q12809 whole entry): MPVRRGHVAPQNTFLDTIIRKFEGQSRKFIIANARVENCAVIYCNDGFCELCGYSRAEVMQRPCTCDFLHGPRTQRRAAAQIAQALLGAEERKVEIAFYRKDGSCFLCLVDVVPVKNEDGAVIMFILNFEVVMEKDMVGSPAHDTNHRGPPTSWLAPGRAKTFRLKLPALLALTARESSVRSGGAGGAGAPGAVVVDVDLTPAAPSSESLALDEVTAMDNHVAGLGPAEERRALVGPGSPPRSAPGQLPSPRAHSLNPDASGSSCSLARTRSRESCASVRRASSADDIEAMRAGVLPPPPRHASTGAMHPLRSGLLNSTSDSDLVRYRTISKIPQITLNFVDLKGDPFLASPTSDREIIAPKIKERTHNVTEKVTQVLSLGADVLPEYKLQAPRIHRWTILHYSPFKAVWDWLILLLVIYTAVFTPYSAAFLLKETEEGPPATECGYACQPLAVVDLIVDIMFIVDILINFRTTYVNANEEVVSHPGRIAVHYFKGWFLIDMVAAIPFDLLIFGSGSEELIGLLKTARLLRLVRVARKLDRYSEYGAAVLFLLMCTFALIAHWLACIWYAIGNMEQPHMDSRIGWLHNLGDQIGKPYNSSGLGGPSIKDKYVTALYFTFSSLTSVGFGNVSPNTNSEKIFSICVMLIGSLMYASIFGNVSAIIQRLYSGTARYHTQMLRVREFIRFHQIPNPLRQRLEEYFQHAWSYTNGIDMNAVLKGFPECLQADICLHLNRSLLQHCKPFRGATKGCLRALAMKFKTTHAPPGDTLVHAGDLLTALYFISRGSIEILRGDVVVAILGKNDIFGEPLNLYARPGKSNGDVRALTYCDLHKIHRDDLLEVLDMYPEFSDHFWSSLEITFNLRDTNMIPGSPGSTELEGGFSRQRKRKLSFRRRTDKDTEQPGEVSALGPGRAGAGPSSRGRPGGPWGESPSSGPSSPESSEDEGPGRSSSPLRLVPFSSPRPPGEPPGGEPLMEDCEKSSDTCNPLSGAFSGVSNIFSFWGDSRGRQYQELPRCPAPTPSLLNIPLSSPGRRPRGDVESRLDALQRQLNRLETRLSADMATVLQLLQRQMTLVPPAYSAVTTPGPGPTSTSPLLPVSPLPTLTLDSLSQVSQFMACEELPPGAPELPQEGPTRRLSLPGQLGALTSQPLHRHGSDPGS

Turning to `[2H]c1ccc2c(N3C[C@@H]4CN(c5ncc(N6C[C@@H]7C[C@H]6CN7)cc5C)CCN4[C@@H](C)C3)ccc(C#N)c2n1` [Example 111, 5-[(4S,9aR)-8-[5-[(1S,4S)-2,5-diazabicyclo[2.2.1]heptan-2-yl]-3-methyl-2-pyridyl]-4-methyl-3,4,6,7,9,9a-hexahydro-1H-pyrazino[1,2-a]pyrazin-2-yl]-2-deuterio-quinoline-8-carbonitrile], on hERG channel, the IC50 is greater than 20 µM, the concentration for an effect of 20% (IC20) was greater than 10 µM, the “hERG IC20/TLR7 IC50” value was greater than 1666 and the “hERG IC20/TLR8 IC50” value is greater than 2000. In addition, at hERG channel, the “hERG IC20/TLR9 IC50” value is given as greater than 84. For the same compound, at human TLR9, the IC50 is 0.119 µM.

Take `C[C@@H]1CN(c2ccc(C#N)c3ncccc23)C[C@@H]2CN(CCc3ccc(N4CC5(CN(C)C5)C4)nc3)CCN21` [Example 22, 5-[(4R,9aS)-4-methyl-8-[2-[6-(6-methyl-2,6-diazaspiro[3.3]heptan-2-yl)-3-pyridyl]ethyl]-3,4,6,7,9,9a-hexahydro-1H-pyrazino[1,2-a]pyrazin-2-yl]quinoline-8-carbonitrile]: on hERG channel, the IC50 is greater than 20 µM, the IC20 was greater than 10 µM, the “hERG IC20/TLR7 IC50” value is recorded as greater than 385 and the “hERG IC20/TLR8 IC50” value is on record as greater than 172. For the same compound, the “hERG IC20/TLR9 IC50” value on hERG channel was greater than 213. For the same compound, on human TLR9, the IC50 was determined as 0.047 µM.

In the case of `CO[C@@H]1CN(c2ccnc(N3CCN4[C@@H](C3)CN(c3ccc(C#N)c5ncccc35)C[C@H]4C)n2)C[C@H]1N` [Example 37, 5-[(4R,9aR)-8-[4-[(3R,4R)-3-amino-4-methoxy-pyrrolidin-1-yl]pyrimidin-2-yl]-4-methyl-3,4,6,7,9,9a-hexahydro-1H-pyrazino[1,2-a]pyrazin-2-yl]quinoline-8-carbonitrile], at hERG channel, the IC50 is greater than 10 µM, the 20% effect concentration (IC20) was found to be 4.5 µM, the “hERG IC20/TLR7 IC50” value amounted to 214 and the “hERG IC20/TLR8 IC50” value turned out to be 173. Besides, the “hERG IC20/TLR9 IC50” value on hERG channel is recorded as 73. The IC50 at human TLR9 is 0.062 µM.

As to `CO[C@@H]1CN(c2ccc(CCN3CCN4[C@@H](C3)CN(c3ccc(C#N)c5ncccc35)C[C@H]4C)cn2)C[C@H]1N` [Example 12, 5-[(4R,9aS)-8-[2-[6-[(3R,4R)-3-amino-4-methoxy-pyrrolidin-1-yl]-3-pyridyl]ethyl]-4-methyl-3,4,6,7,9,9a-hexahydro-1H-pyrazino[1,2-a]pyrazin-2-yl]quinoline-8-carbonitrile], on hERG channel, the IC50 is greater than 20 µM, the IC20 is greater than 10 µM, the “hERG IC20/TLR7 IC50” value is reported as greater than 833 and the “hERG IC20/TLR8 IC50” value is listed as greater than 714. Further, the “hERG IC20/TLR9 IC50” value at hERG channel is on record as greater than 213. Moreover, the IC50 on human TLR9 came to 0.047 µM.

In the case of `C[C@@H]1CN(c2ccc(C#N)c3ncccc23)C[C@@H]2CN(Cc3ccc4c(c3)CNCC4)CCN21` [Example 5, 5-[(4R,9aS)-4-methyl-8-(1,2,3,4-tetrahydroisoquinolin-7-ylmethyl)-3,4,6,7,9,9a-hexahydro-1H-pyrazino[1,2-a]pyrazin-2-yl]quinoline-8-carbonitrile], on hERG channel, the IC50 was greater than 20 µM, the IC20 was greater than 10 µM, the “hERG IC20/TLR7 IC50” value was greater than 588 and the “hERG IC20/TLR8 IC50” value is greater than 833. For the same compound, the “hERG IC20/TLR9 IC50” value at hERG channel is greater than 313. In addition, the IC50 at human TLR9 is less than 0.032 µM.

Turning to `[2H]c1ccc2c(N3C[C@@H]4CN(c5ccc(N6C[C@@H](N)[C@H](OC)C6)nc5)CCN4[C@@H](C)C3)ccc(C#N)c2n1` [Example 115, 5-[(4S,9aR)-8-[6-[(3R,4R)-3-amino-4-methoxy-pyrrolidin-1-yl]-3-pyridyl]-4-methyl-3,4,6,7,9,9a-hexahydro-1H-pyrazino[1,2-a]pyrazin-2-yl]-2-deuterio-quinoline-8-carbonitrile], on hERG channel, the IC50 was greater than 20 µM, the IC20 was greater than 10 µM, the “hERG IC20/TLR7 IC50” value is greater than 1000 and the “hERG IC20/TLR8 IC50” value is on record as greater than 588. In addition, the “hERG IC20/TLR9 IC50” value at hERG channel is reported as greater than 71. In addition, the IC50 on human TLR9 stood at 0.14 µM.

In the case of `C[C@@H]1CN(c2ccc(C#N)c3ncccc23)C[C@@H]2CN(c3nccc(N4CC(N)C4)n3)CCN21` [Example 39, 5-[(4R,9aR)-8-[4-(3-aminoazetidin-1-yl)pyrimidin-2-yl]-4-methyl-3,4,6,7,9,9a-hexahydro-1H-pyrazino[1,2-a]pyrazin-2-yl]quinoline-8-carbonitrile], at hERG channel, the IC50 was greater than 10 µM, it took 5 µM to reach the 20% level (IC20), the “hERG IC20/TLR7 IC50” value is recorded as 238 and the “hERG IC20/TLR8 IC50” value worked out at 294. The “hERG IC20/TLR9 IC50” value on hERG channel amounted to 53. Also, at human TLR9, the IC50 came to 0.095 µM.

Regarding `Cc1cc(N2CCNCC2)ncc1N1CCN2CCN(c3ccc(C#N)c4ncccc34)CC2C1` (stereo not drawn) [Example 38, 5-[2-(4-methyl-6-piperazin-1-yl-3-pyridyl)-3,4,6,7,9,9a-hexahydro-1H-pyrazino[1,2-a]pyrazin-8-yl]quinoline-8-carbonitrile], on hERG channel, the IC50 is greater than 20 µM, the IC20 was greater than 10 µM, the “hERG IC20/TLR7 IC50” value is recorded as greater than 5000 and the “hERG IC20/TLR8 IC50” value is on record as greater than 1250. The “hERG IC20/TLR9 IC50” value on hERG channel is given as greater than 108. The IC50 on human TLR9 amounted to 0.093 µM.

For `C[C@@H]1CN(c2ccc(C#N)n3ncc(F)c23)C[C@@H]2CN(Cc3ccc4c(c3)CNCC4)CCN21` [Example 69, 4-[(4R,9aS)-4-methyl-8-(1,2,3,4-tetrahydroisoquinolin-7-ylmethyl)-3,4,6,7,9,9a-hexahydro-1H-pyrazino[1,2-a]pyrazin-2-yl]-3-fluoro-pyrazolo[1,5-a]pyridine-7-carbonitrile], on hERG channel, the IC50 was greater than 20 µM, the 20% effect concentration (IC20) is greater than 10 µM, the “hERG IC20/TLR7 IC50” value was greater than 152 and the “hERG IC20/TLR8 IC50” value is greater than 192. In addition, the “hERG IC20/TLR9 IC50” value on hERG channel is on record as greater than 70. For the same compound, the IC50 on human TLR9 was found to be 0.142 µM.

Regarding `C[C@@H]1CN(c2ccc(C#N)c3ncccc23)C[C@@H]2CN(c3cc(N4CCNCC4)ccn3)CCN21` [Example 34, 5-[(4R,9aR)-4-methyl-8-(4-piperazin-1-yl-2-pyridyl)-3,4,6,7,9,9a-hexahydro-1H-pyrazino[1,2-a]pyrazin-2-yl]quinoline-8-carbonitrile], at hERG channel, the IC50 was greater than 10 µM, the concentration for an effect of 20% (IC20) is 4.74 µM, the “hERG IC20/TLR7 IC50” value is reported as 237 and the “hERG IC20/TLR8 IC50” value is listed as 339. At hERG channel, the “hERG IC20/TLR9 IC50” value was found to be 113. Moreover, the IC50 on human TLR9 is 0.042 µM.

With `C[C@@H]1CN(c2ccc(C#N)c3ncccc23)C[C@@H]2CN(c3cccc4c3CNC4)CCN21` [Example 9, 5-[(4R,9aS)-8-isoindolin-4-yl-4-methyl-3,4,6,7,9,9a-hexahydro-1H-pyrazino[1,2-a]pyrazin-2-yl]quinoline-8-carbonitrile], on hERG channel, the IC50 was greater than 20 µM, the IC20 came out at 5.17 µM, the “hERG IC20/TLR7 IC50” value was 1723 and the “hERG IC20/TLR8 IC50” value was 5170. The “hERG IC20/TLR9 IC50” value at hERG channel is 65. Further, at human TLR9, the IC50 turned out to be 0.079 µM.

These data come from patent US20220340597A1, “HEXAHYDRO-1H-PYRAZINO[1,2-A]PYRAZINE COMPOUNDS FOR THE TREATMENT OF AUTOIMMUNE DISEASE” (Hoffmann-La Roche Inc., priority 2019, published 2022).
